Results on 20 compounds are retold here after ChEMBL document CHEMBL1154397, “Synthesis and SAR of 4-substituted-2-aminopyrimidines as novel c-Jun N-terminal kinase (JNK) inhibitors” (Bioorg Med Chem Lett, 2009).

The target of series [1] is c-Jun N-terminal kinase, JNK (Homo sapiens, UniProt P45983+P53779+P45984). Nature of the series: Inhibition of TNF-alpha-induced phosphorylation of […] in human HepG2 cells. The class given is cell-based.
The test system of another series is Liver microsomes. The experiment in a line: Metabolic stability in human liver microsomes assessed as clearance. The class given is ADME, Microsome. On the technique in general: Liver microsomes are vesicles of endoplasmic reticulum, rich in cytochrome P450 enzymes.
Series [2] has as its target Mitogen-activated protein kinase 8 (Homo sapiens, UniProt P45983). The experiment in a line: Inhibition of JNK1.
The nature of series [3]: Lipophilicity, log D of the compound. The settings on record: octanol/water. The class given is physicochemical.
The target in series [4] is Mitogen-activated protein kinase 9 (Homo sapiens, UniProt P45984). The experiment in a line: Inhibition of to JNK2.
For series [5], the target named is Mitogen-activated protein kinase 10 (Homo sapiens, UniProt P53779). The experiment in a line: Inhibition of JNK3.
For series [6], the target named is Cyclin-dependent kinase 2 (Homo sapiens, UniProt P24941). The experiment in a line: Inhibition of CDK2/cyclinA.
The target of series [7] is Dual specificity mitogen-activated protein kinase kinase 7 (Homo sapiens, UniProt O14733). Nature of the series: Inhibition of MKK7beta.
Series [8] has as its target Dual specificity mitogen-activated protein kinase kinase 4 (Homo sapiens, UniProt P45985). Nature of the series: Inhibition of MKK4.
Series [9] has as its target Mitogen-activated protein kinase 13 (Homo sapiens, UniProt O15264). Nature of the series: Inhibition of SPAK4.
Series [10] deals with Glycogen synthase kinase-3 beta (Homo sapiens, UniProt P49841). The experiment in a line: Inhibition of GSK3-beta.
Series [11] has as its target Mitogen-activated protein kinase 12 (Homo sapiens, UniProt P53778). The experiment in a line: Inhibition of SAPK3.
The target in series [12] is Inhibitor of nuclear factor kappa-B kinase subunit beta (Homo sapiens, UniProt O14920). The experiment in a line: Inhibition of IKKb.
Series [13] concerns the target Dual specificity mitogen-activated protein kinase kinase 6 (Homo sapiens, UniProt P52564). Nature of the series: Inhibition of MKK6.
In series [14] the target is 5'-AMP-activated protein kinase catalytic subunit alpha-2 (Homo sapiens, UniProt P54646). Nature of the series: Inhibition of AMPK.
In a further series the target is Insulin receptor (Homo sapiens, UniProt P06213). Nature of the series: Inhibition of IR.
In series [15] the target is MAP kinase-activated protein kinase 2 (Homo sapiens, UniProt P49137). The experiment in a line: Inhibition of MAPKAP-K2.
Series [16] deals with Dual specificity mitogen-activated protein kinase kinase 1 (Homo sapiens, UniProt Q02750). The experiment in a line: Inhibition of MEK1.
The target of series [17] is Ribosomal protein S6 kinase beta-1 (Homo sapiens, UniProt P23443). The experiment in a line: Inhibition of P70s6K.
The target of series [18] is Protein kinase C theta type (Homo sapiens, UniProt Q04759). Nature of the series: Inhibition of PKCtheta.
In series [19] the target is Mitogen-activated protein kinase 14 (Homo sapiens, UniProt Q16539). Nature of the series: Inhibition of SAPK2a.
The target of series [20] is Mitogen-activated protein kinase 11 (Homo sapiens) (UniProt Q15759). The experiment in a line: Inhibition of SAPK2b.
The target of series [21] is Voltage-gated inwardly rectifying potassium channel KCNH2 (Homo sapiens, UniProt Q12809). Nature of the series: Binding affinity to human ERG.
A short description of series [22]: Metabolic stability in rat liver microsomes assessed as clearance. The class given is ADME, Microsome.
Series [23] in a line: Selectivity ratio of IC50 for p38MAPKbeta to IC50 for JNK1.
Series [24] in a line: Selectivity ratio of IC50 for p38MAPKgamma to IC50 for JNK1.
Series [25] is described as follows: Permeability from apical to basolateral side of human Caco-2 cells. The class given is ADME, cell-based. The settings on record: read-out: permeability.
Series [26] in a line: Permeability from basolateral to apical side of human Caco-2 cells. The class given is ADME, cell-based. The settings on record: read-out: permeability. A general note: Caco-2 monolayers are a common model of the intestinal barrier.

As a reminder, the IC50 is the concentration needed to halve the response being measured. Usually microsomal CLint stands for a measure of how fast metabolising enzymes remove a compound, apart from limits set by blood flow. For orientation: Ki means a dissociation constant, usually derived from enzyme kinetics or from competition with a known ligand. The low end stands for higher affinity, the high end for lower affinity. The term logD denotes lipophilicity at a set pH, counting ionised and neutral species. Higher therefore signals higher lipophilicity.

Molecules are shown by their SMILES.

Sequence of Mitogen-activated protein kinase 8 (P45983 whole entry): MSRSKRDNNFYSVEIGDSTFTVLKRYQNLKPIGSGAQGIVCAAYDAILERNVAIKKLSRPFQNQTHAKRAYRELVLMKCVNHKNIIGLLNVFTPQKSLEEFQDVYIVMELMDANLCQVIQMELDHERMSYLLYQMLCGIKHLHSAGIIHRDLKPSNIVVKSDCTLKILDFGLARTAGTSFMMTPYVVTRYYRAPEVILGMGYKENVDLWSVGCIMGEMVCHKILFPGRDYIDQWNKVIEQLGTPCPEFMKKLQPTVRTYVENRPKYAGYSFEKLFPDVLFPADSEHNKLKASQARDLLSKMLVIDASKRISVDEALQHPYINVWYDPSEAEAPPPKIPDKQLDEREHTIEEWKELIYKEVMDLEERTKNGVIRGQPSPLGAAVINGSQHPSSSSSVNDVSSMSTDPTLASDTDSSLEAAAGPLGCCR
Sequence of Mitogen-activated protein kinase 14 (Q16539 whole entry): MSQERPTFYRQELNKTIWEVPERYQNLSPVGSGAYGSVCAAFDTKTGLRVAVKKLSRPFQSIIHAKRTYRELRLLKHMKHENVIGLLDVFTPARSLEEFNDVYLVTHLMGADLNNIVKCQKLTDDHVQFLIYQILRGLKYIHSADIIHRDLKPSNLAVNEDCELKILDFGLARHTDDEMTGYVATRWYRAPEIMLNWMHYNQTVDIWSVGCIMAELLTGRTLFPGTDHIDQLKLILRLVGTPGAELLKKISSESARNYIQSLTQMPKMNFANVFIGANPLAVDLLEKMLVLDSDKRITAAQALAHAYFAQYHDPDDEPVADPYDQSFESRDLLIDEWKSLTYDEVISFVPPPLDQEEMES
Sequence of Dual specificity mitogen-activated protein kinase kinase 1 (Q02750 whole entry): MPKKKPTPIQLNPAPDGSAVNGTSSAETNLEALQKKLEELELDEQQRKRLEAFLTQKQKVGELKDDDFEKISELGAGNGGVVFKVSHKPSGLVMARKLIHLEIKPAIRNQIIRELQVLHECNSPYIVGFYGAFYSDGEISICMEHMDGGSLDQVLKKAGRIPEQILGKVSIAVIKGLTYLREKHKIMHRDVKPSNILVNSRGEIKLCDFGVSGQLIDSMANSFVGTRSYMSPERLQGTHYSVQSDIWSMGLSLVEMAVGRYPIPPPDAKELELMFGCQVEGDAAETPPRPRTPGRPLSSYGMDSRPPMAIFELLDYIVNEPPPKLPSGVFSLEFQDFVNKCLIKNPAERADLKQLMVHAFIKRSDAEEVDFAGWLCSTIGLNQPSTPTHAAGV
Sequence of Inhibitor of nuclear factor kappa-B kinase subunit beta (O14920 whole entry): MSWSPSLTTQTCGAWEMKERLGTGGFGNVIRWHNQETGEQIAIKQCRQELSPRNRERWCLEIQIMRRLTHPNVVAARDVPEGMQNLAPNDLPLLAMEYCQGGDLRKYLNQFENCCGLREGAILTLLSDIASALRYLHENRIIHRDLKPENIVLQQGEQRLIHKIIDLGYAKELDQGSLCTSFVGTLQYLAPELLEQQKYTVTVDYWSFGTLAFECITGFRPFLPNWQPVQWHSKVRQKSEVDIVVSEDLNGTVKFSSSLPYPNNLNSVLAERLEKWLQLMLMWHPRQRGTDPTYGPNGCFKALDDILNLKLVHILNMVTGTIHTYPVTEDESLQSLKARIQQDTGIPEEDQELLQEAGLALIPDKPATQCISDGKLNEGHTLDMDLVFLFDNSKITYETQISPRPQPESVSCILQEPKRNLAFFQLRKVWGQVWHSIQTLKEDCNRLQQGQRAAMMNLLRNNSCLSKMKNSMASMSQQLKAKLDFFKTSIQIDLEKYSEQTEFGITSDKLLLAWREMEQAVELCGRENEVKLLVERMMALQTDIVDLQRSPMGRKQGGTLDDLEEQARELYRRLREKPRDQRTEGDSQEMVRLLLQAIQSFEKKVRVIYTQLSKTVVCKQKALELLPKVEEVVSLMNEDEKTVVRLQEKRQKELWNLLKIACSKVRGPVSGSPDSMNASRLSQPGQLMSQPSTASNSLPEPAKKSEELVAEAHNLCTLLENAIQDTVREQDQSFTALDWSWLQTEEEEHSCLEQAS
Sequence of Mitogen-activated protein kinase 9 (P45984 whole entry): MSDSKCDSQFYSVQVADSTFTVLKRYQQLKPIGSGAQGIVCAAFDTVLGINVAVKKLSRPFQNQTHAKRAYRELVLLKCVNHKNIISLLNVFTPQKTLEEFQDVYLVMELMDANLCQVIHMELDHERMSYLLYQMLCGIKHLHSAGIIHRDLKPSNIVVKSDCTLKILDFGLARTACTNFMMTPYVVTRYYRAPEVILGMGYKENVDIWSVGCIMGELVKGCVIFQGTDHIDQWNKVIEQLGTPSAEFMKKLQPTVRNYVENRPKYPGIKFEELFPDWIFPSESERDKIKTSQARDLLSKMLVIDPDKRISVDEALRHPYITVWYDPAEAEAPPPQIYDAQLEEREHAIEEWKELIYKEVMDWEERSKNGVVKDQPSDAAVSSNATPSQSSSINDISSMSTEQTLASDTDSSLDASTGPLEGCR
Sequence of Dual specificity mitogen-activated protein kinase kinase 6 (P52564 whole entry): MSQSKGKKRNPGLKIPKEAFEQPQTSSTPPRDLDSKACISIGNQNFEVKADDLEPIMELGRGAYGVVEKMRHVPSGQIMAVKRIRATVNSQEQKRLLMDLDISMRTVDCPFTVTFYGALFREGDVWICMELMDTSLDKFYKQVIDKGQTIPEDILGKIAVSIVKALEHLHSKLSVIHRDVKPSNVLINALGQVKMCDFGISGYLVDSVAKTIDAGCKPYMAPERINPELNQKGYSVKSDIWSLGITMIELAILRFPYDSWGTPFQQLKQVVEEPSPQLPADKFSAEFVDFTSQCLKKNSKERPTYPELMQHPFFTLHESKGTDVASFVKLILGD
Sequence of Insulin receptor (P06213 28-758 limits assumed): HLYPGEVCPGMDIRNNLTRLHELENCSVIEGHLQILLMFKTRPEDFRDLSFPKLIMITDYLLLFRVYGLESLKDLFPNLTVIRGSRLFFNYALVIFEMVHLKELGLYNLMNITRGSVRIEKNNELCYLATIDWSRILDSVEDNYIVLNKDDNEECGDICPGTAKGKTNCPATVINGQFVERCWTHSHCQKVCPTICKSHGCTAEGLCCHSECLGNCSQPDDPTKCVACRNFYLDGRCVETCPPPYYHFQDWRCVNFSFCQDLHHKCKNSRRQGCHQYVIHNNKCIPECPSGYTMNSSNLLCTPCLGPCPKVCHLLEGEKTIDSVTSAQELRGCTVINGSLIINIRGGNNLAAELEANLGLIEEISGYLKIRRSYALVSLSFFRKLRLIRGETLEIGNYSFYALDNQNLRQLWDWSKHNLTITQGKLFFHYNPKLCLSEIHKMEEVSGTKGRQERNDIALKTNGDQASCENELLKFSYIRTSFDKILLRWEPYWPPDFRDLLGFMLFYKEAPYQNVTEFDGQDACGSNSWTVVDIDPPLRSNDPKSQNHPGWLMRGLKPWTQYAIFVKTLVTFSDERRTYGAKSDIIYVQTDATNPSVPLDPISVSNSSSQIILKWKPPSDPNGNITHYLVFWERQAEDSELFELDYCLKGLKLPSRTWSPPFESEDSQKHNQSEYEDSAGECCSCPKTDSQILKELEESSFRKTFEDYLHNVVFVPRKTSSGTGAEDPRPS
Sequence of Insulin receptor (P06213 763-1382 limits assumed): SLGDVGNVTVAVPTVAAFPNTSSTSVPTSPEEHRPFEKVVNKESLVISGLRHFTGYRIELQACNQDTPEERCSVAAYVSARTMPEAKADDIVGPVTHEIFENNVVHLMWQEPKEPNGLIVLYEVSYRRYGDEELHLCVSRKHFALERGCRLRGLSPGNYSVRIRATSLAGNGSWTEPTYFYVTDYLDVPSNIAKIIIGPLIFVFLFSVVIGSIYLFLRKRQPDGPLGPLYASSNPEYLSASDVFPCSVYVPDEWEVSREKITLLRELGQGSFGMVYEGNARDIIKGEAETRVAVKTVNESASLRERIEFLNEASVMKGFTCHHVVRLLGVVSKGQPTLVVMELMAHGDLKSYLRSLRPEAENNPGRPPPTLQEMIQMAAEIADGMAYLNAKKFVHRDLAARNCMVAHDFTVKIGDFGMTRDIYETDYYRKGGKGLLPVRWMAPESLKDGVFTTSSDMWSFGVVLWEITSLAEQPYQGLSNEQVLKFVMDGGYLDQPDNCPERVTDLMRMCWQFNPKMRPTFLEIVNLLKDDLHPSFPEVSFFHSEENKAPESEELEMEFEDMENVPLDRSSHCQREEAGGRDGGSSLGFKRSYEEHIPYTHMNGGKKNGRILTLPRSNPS
Sequence of Glycogen synthase kinase-3 beta (P49841 whole entry): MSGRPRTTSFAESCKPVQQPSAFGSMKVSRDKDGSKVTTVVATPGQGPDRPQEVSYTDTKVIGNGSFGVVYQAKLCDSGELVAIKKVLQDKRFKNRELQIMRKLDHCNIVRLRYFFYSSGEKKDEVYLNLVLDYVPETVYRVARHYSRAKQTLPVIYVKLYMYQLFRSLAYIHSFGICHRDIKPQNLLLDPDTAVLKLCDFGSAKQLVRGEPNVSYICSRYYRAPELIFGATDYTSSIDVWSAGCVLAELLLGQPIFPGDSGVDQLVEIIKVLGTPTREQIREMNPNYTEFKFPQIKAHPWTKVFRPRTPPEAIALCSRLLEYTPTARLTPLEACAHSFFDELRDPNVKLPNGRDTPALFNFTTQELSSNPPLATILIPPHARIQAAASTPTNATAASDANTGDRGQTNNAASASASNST
Sequence of Dual specificity mitogen-activated protein kinase kinase 4 (P45985 whole entry): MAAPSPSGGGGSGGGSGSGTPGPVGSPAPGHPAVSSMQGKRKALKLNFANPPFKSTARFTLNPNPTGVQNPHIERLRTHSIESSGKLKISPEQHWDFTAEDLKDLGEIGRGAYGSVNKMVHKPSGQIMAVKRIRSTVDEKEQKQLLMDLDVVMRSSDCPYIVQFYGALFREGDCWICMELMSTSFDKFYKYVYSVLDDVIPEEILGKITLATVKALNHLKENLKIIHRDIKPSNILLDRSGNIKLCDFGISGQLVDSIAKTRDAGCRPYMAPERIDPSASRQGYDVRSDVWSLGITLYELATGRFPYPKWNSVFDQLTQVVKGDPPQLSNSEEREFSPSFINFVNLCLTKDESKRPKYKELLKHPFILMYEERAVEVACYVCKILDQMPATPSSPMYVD

The compound `CC(C)Nc1nccc(-c2c[nH]nc2-c2ccc(Cl)cc2)n1` returned an IC50 in [1] of 920 nM. Also, the microsomal CLint with Liver microsomes came out at 106 µL/min/mg. This compound yielded an inhibition constant Ki in series [2] of 48 nM.
`Cc1ccc(-c2n[nH]cc2-c2ccnc(NC3CCN(C)CC3)n2)cn1` returned an IC50 in [1] of 6020 nM. In addition, the microsomal CLint in the series with Liver microsomes was determined as 61 µL/min/mg. This compound had a Ki in [2] of 162 nM.
`Clc1ccc(-c2n[nH]cc2-c2ccnc(NC3CCCC3)n2)cc1`: the concentration for half-maximal inhibition (IC50) in series [1] was 460 nM. Moreover, the intrinsic clearance (microsomal CLint) in the series on Liver microsomes was found to be 116 µL/min/mg. In addition, in [2], the inhibition constant Ki is 26 nM. In addition, in [3], the logD was found to be 4.42.
`CC(C)Nc1nccc(-c2cn[nH]c2C2CCCCO2)n1` (configuration not stated) registered an IC50 in [1] of 3500 nM. The intrinsic clearance (microsomal CLint) in the series on Liver microsomes came to 21 µL/min/mg. This compound gave a Ki in series [2] of 381 nM.
As to `Cc1ccnc(S)n1`, the inhibition constant (Ki) in series [2] was 2060 nM.
Compound `c1cc(-c2cn[nH]c2C2CCCOC2)nc(NC2CCCC2)n1` (configuration not stated) registered a half-maximal inhibitory concentration (IC50) in [1] of 245 nM. In addition, in the series with Liver microsomes, the intrinsic clearance (microsomal CLint) was 89 µL/min/mg. In series [2], this compound had a Ki of 12 nM.
Consider `CS(=O)(=O)N[C@H]1CC[C@H](c2n[nH]cc2-c2ccnc(NC3CCCC3)n2)CC1`, for which, in [1], the half-maximal inhibitory concentration (IC50) came to 114 nM. Also, the microsomal CLint in the series on Liver microsomes came to 11 µL/min/mg. Further, the affinity in series [2] corresponds to a Ki of 9 nM.
Turning to `O[C@H]1CC[C@H](c2[nH]ncc2-c2ccnc(NC3CCCC3)n2)CC1`, the microsomal CLint in the series with Liver microsomes was < 15 µL/min/mg. Moreover, the Ki in [4] is 17 nM; in series [5] it was 16 nM; in series [2], 12 nM. Also, the half-inhibitory concentration (IC50) in [6] came to 590 nM; in [7] it was 860 nM; in series [8], 920 nM; in [9], 1200 nM; in series [10], 1900 nM; in series [11], 6200 nM. In addition, the IC50 in series [12] was 13000 nM; in [13] it was 15000 nM; in series [14], > 30000 nM; against Insulin receptor it was > 30000 nM; in series [15], > 30000 nM; in [16], > 30000 nM. The IC50 was > 30000 nM in series [17], > 30000 nM in series [18], > 30000 nM in series [19] and 15000 nM in [20].
`CN1CCC(Nc2nccc(-c3c[nH]nc3-c3ccc(Cl)cc3)n2)CC1`: the microsomal CLint in the series with Liver microsomes is 14 µL/min/mg. For the same compound, the Ki was 1020 nM in series [21] and 1570 nM in series [2].
For `CC(=O)N[C@H]1CC[C@H](c2n[nH]cc2-c2ccnc(NC3CCCC3)n2)CC1`, the half-maximal inhibitory concentration (IC50) in [1] turned out to be 299 nM. Besides, the microsomal CLint with Liver microsomes is < 8 µL/min/mg. In series [2], this compound came in with a Ki of 28 nM.
`CC(C)Nc1nccc(-c2c[nH]nc2C2CCCOC2)n1` (configuration not stated): in series [1], the IC50 amounted to 357 nM. For the same compound, the microsomal CLint in the series with Liver microsomes was 34 µL/min/mg; in series [22] it was 18 µL/min/mg. Moreover, the affinity in [2], expressed as Ki, was 43 nM.
As for `CC(C)Nc1nccc(-c2cn[nH]c2C2CCCNC2)n1` (configuration not stated), the intrinsic metabolic clearance (microsomal CLint) in the series on Liver microsomes was 14 µL/min/mg. In series [2], this compound returned an inhibition constant Ki of 530 nM.
The compound `Clc1ccc(-c2n[nH]cc2-c2ccnc(NC3CCCCC3)n2)cc1` gave a half-maximal inhibitory concentration (IC50) in series [1] of 1100 nM. Besides, the intrinsic clearance (microsomal CLint) with Liver microsomes was found to be 156 µL/min/mg. In series [2], this compound returned an inhibition constant (Ki) of 27 nM.
Take `OC1CCCC(c2n[nH]cc2-c2ccnc(NC3CCCC3)n2)C1` (configuration not stated): the IC50 in series [1] came out at 209 nM. In the series with Liver microsomes, the microsomal CLint was found to be 15 µL/min/mg. The same compound showed an inhibitory constant (Ki) in series [2] of 36 nM.
For `O[C@H]1CC[C@H](c2n[nH]cc2-c2ccnc(NC3CCCC3)n2)CC1`, in [1], the IC50 was determined as 98 nM. For the same compound, the Activity in series [23] and in series [24] was 100 in each case.
With `CC(C)Nc1nccc(-c2cn[nH]c2)n1`, in the series with Liver microsomes, the intrinsic clearance (microsomal CLint) worked out at 21 µL/min/mg. For the same compound, in series [2], the Ki turned out to be 2730 nM.
Consider `CC(C)Nc1nccc(-c2cn[nH]c2C2CCN(S(C)(=O)=O)CC2)n1`, for which the IC50 in series [1] worked out at 221 nM. The microsomal CLint in the series with Liver microsomes was 12 µL/min/mg; in series [22] it was 52 µL/min/mg. Also, the inhibitory constant (Ki) in series [2] worked out at 101 nM.
`Clc1ccc(-c2n[nH]cc2-c2ccnc(NC3CC3)n2)cc1` gave an IC50 in [1] of 840 nM. Moreover, the microsomal CLint in the series on Liver microsomes turned out to be 96 µL/min/mg. In series [2], this compound registered a Ki of 151 nM.
For the compound `C[C@H](CC(=O)O)Nc1nccc(-c2c[nH]nc2-c2ccc(Cl)cc2)n1`, the microsomal CLint in the series on Liver microsomes was < 6 µL/min/mg. Further, the Papp A→B in series [25] amounted to 0.3 ×10⁻⁶ cm/s. In addition, the Papp B→A in series [26] came out at 13.2 ×10⁻⁶ cm/s. This compound also yielded a Ki in [2] of 315 nM.
`CC(C)Nc1nccc(-c2c[nH]nc2C2CCOCC2)n1`: the IC50 in [1] was 814 nM. In the series on Liver microsomes, the intrinsic metabolic clearance (microsomal CLint) worked out at 18 µL/min/mg. The Ki in series [2] is 169 nM.
